Measurements reported in the supplement of paper PMC10307832.

Assays:
Assay in all cases: relative viability (nuclei count vs DMSO), 5 days (fraction); higher = more cells survive
Salubrinal + Trametinib = compound: O=C(/C=C/c1ccccc1)NC(NC(=S)Nc1cccc2cccnc12)C(Cl)(Cl)Cl [Salubrinal] + CC(=O)Nc1cccc(-n2c(=O)n(C3CC3)c(=O)c3c(Nc4ccc(I)cc4F)n(C)c(=O)c(C)c32)c1 [Trametinib] (partner 0.02 µM)
Summary of the method: (§1)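 Relative viability was taken as the ratio of nuclei in treated wells to nuclei in vehicle wells. Lung cancer cell lines in 1536-well plates received compounds by pin tool one day after seeding, either one drug alone or a fixed anchor-drug dose plus five library-drug doses (not always all listed) in √10 steps. Nuclei were counted on 4× images after 5 days of treatment, and values are medians of duplicate plates.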

Salubrinal + Crizotinib = compound: O=C(/C=C/c1ccccc1)NC(NC(=S)Nc1cccc2cccnc12)C(Cl)(Cl)Cl [Salubrinal] + C[C@@H](Oc1cc(-c2cnn(C3CCNCC3)c2)cnc1N)c1c(Cl)ccc(F)c1Cl [Crizotinib] (partner 1 µM)
Summary of the method: as §1

[1] = compound: Cc1ccc2nc(NCCN)c3ncc(C)n3c2c1 + CS(=O)(=O)N1CCN(Cc2cc3nc(-c4cccc5[nH]ncc45)nc(N4CCOCC4)c3s2)CC1 [Pictilisib] (partner 1 µM)
Summary of the method: as §1

[2] = compound: Cc1ccc2nc(NCCN)c3ncc(C)n3c2c1 + Nc1ncn([C@H]2C[C@H](O)[C@@H](CO)O2)c(=O)n1 [Decitabine] (partner 2 µM)
Summary of the method: as §1

UMC-11
relative viability (Salubrinal + Trametinib; first compound 0.08 µM): 0.468
relative viability (Salubrinal + Trametinib; first compound 0.253 µM): 0.749
relative viability (Salubrinal + Trametinib; first compound 0.8 µM): 0.741
relative viability (Salubrinal + Trametinib; first compound 2.53 µM): 0.775
relative viability (Salubrinal + Trametinib; first compound 8 µM): 0.826
relative viability (Salubrinal + Crizotinib; first compound 0.08 µM): 0.577
relative viability (Salubrinal + Crizotinib; first compound 0.253 µM): 0.54
relative viability (Salubrinal + Crizotinib; first compound 0.8 µM): 0.586
relative viability (Salubrinal + Crizotinib; first compound 2.53 µM): 0.578
relative viability (Salubrinal + Crizotinib; first compound 8 µM): 0.599
relative viability ([1]; first compound 0.04 µM): 0.857
relative viability ([1]; first compound 0.1265 µM): 0.692
relative viability ([1]; first compound 0.4 µM): 0.808
relative viability ([1]; first compound 1.265 µM): 0.813
relative viability ([1]; first compound 4 µM): 0.708
relative viability ([2]; first compound 0.04 µM): 0.606
relative viability ([2]; first compound 0.1265 µM): 0.432
relative viability ([2]; first compound 0.4 µM): 0.59
relative viability ([2]; first compound 1.265 µM): 0.679
relative viability ([2]; first compound 4 µM): 0.624
